Where two headings read alike, the source gives them in different places.
Key:
Siha cells [1] = assay: MTT assay, growth inhibition of Siha cells; format: cell-based, human
Description: (§1) Cells were cultured in improved medium supplemented with 10% FBS and kept at 37°C in a […] humidified atmosphere containing 5% CO2. Logarithmic phase cells were used for the experiment and were treated with different concentrations of different medications for different amounts of time. […] Inhibitors were made into 10 mM stock solutions with DMSO, filtered, and kept at room temperature away from light. These inhibitor stock solutions were diluted to the required concentration (1, 5, 15, 30, 60, 120, 180, or 240 μM) before every experiment. The final doses of nedaplatin were […]. In order to determine whether an HPA inhibitor sensitized cells to nedaplatin, 10 μM of inhibitor number 16 (No. 16) was added into each experimental well with nedaplatin.
(§2) 200 μl of single-cell suspension at a density of 5 × 10^4 cells/ml was seeded into 96-well plates. […] OD values were measured at the wavelength of 492 nm with a reference wavelength of 630 nm. Inhibition rate (IR) in the cells was calculated as follows: IR = ((OD2-OD0)-(OD1-OD0))/(OD2-OD0) × 100%, where OD0 was the OD value of blank wells, OD2 was the value of normal control wells, and OD1 was the value of experimental wells. […]

HeLa cells [2] = assay: MTT assay, growth inhibition of HeLa cells; format: cell-based, human; conditions: for inhibition at 1 µM / inhibition at 5 µM / inhibition at 15 µM / inhibition at 30 µM / inhibition at 60 µM / inhibition at 120 µM / inhibition at 180 µM / inhibition at 240 µM / IC50: Homo sapiens, HeLa; for inhibition at 1 µM / inhibition at 5 µM / inhibition at 15 µM / inhibition at 30 µM / inhibition at 60 µM / inhibition at 120 µM / inhibition at 180 µM / inhibition at 240 µM: read-out: Growth inhibition rate in HeLa cells
Description: as §1
200 μl of single-cell suspension at a density of 5 × 10^4 cells/ml was seeded into 96-well plates. When cells were adherent, the medium was replaced with 200 μl of medium containing different concentrations of inhibitor or nedaplatin, and the cells were further incubated for 24 hours to 96 hours respectively. 20 μl MTT solution ([…] in phosphate buffered saline (PBS)) was added to each well 4 hours before the treatment ended. The cells were then incubated for another 4 hours, after which the supernatants were removed. The cells were totally solubilized in 150 μl DMSO. OD values were measured at the wavelength of 492 nm with a reference wavelength of 630 nm. Inhibition rate (IR) in the cells was calculated as follows: IR = ((OD2-OD0)-(OD1-OD0))/(OD2-OD0) × 100%, where OD0 was the OD value of blank wells, OD2 was the value of normal control wells, and OD1 was the value of experimental wells. Each condition was replicated in six separate wells.

HaCaT cells = assay: Cell wound healing assay (migration), HaCaT cells; format: cell-based, human; conditions: 50 μM, 24 hours, compared to control
Description: (§3) Straight lines 0.5 cm apart from each other were marked on the bottoms of culture dishes opposite the label lines. Logarithmic phase cells were seeded into 35 mm culture dishes. Nicks were made 0.5 cm apart on the bottom of the dish along the labeled lines with a 200 μl sterile pipette tip after cells were close to saturated. Dishes were then washed with sterile PBS three times, 2% FBS medium containing 0 or 50 μM of No. 16 inhibitor was added, and dishes were incubated for 24 hours. The scratch width was photographed under phase contrast on an inverted microscope with a digital camera (100× magnification). The experiment was repeated three times.

c-Myc = c-Myc expression in HeLa and Siha cells (western blot and PCR); format: cell-based, human; conditions: both HeLa and Siha cells, 50 μM, 48 hours
Description: (§4) Cells were washed with precooled PBS after being treated with inhibitor for 48 hours, and cell lysis solution was added to extract protein. The sample concentration was measured by the bicinchoninic acid method. 30 μg of protein was separated by 10% polyacrylamide gel electrophoresis (PAGE) and transferred to polyvinylidene difluoride membranes. After blocking in non-fat milk solution at room temperature, the membranes were incubated with diluted primary antibodies against either proteins of interest or β-actin overnight at 4°C. After consecutive washes, the membranes were incubated with secondary antibody (diluted 1:5000) at room temperature for 1 h. Then, the membranes were developed with enhanced chemiluminescence and imaged with ImageQuant LAS4000 (GE Healthcare Life Sciences, Pittsburgh, PA). The grey values of protein bands were analyzed using Image J (National Institutes of Health, USA). The relative levels of proteins of interest were calculated in comparison to the internal reference β-actin. The experiment was repeated three times.
(§5) Levels of HPA, p53, c-Myc, and hTERT mRNA were analyzed by real-time PCR. mRNA was extracted from cells and separated and purified with Trizol. The total RNA concentration was measured with an ultraviolet spectrophotometer. The quality of total RNA was assessed using 1.5% agarose gel electrophoresis. […]

p53 = p53 expression in HeLa and Siha cells (western blot and PCR); format: cell-based, human; conditions: both HeLa and Siha cells, 50 μM, 48 hours
Description: as §4, §5

[3] = system: HaCaT human normal keratinocytes; assay: MTT assay, growth inhibition of HaCaT cells; format: cell-based; conditions: time not given
Description: as §1, §2

h-TERT = h-TERT expression in HeLa and Siha cells (western blot and PCR); format: cell-based, human; conditions: both HeLa and Siha cells, 50 μM, 48 hours
Description: as §4, §5

HeLa cells [4] = assay: Cell wound healing assay (migration), HeLa cells; format: cell-based, human; conditions: 50 μM, 24 hours, compared to control
Description: as §3

Siha cells [5] = assay: Cell wound healing assay (migration), Siha cells; format: cell-based, human; conditions: 50 μM, 24 hours, compared to control
Description: as §3

HPA = HPA expression in HeLa and Siha cells (immunocytochemical staining, western blot, real time PCR); format: cell-based, human; conditions: 50 μM, 24 hours, stronger after 48 hours
From the text: The experiment was repeated three times.
The experiment was repeated twice.

human recombinant HPA = target: T1, human recombinant HPA (Homo sapiens, UniProt Q9Y251); assay: Detection of HPA activity inhibition (Heparan Degrading Enzyme Assay Kit); format: biochemical; conditions: 31 mIU human recombinant HPA, 37°C, 45 minutes; read-out: IC50, inhibitory effect on heparanase activity
T1 sequence (Q9Y251 158-543 limits assumed): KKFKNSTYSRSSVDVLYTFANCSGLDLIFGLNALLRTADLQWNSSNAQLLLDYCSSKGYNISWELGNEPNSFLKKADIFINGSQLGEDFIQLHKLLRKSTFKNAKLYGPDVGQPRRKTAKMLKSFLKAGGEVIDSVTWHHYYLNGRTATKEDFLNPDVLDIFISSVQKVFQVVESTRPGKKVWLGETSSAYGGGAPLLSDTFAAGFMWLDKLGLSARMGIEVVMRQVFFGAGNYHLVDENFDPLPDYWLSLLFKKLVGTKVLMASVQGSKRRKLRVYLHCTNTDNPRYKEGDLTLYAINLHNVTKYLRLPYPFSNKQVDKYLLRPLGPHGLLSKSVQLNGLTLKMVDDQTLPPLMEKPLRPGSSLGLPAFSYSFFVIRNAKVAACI
T1 sequence (Q9Y251 36-109 limits assumed): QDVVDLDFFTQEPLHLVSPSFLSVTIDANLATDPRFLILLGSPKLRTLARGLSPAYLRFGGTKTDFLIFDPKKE
Description: The final reaction volume of each vial was 100 μl. […] Then, 100 μl of terminating liquid was added into each well. OD values were examined at a wavelength of 450 nm. Each concentration was tested in three separate wells. GraphPad Prism 5 (GraphPad Prism Software Inc., San Diego) was used to calculate the inhibitory IC50 values.

[6] = 48 hours, MTT, read-out: IC50, growth inhibition of HeLa cells

Row | SMILES | melting point [°C] | inhibition at 1 µM (HeLa cells [2]; 1 μM, 48 hs, mean ± s) [%] | inhibition at 5 µM (HeLa cells [2]; 5 μM, 48 hs, mean ± s) [%] | inhibition at 15 µM (HeLa cells [2]; 15 μM, 48 hs, mean ± s) [%] | inhibition at 30 µM (HeLa cells [2]; 30 μM, 48 hs, mean ± s) [%] | inhibition at 60 µM (HeLa cells [2]; 60 μM, 48 hs, mean ± s) [%] | inhibition at 120 µM (HeLa cells [2]; 120 μM, 48 hs, mean ± s) [%] | inhibition at 180 µM (HeLa cells [2]; 180 μM, 48 hs, mean ± s) [%] | inhibition at 240 µM (HeLa cells [2]; 240 μM, 48 hs, mean ± s) [%] | IC50 (HeLa cells [2]; [6]) [µM] | IC50 (human recombinant HPA) [µM] | also measured
1 | [NH2][Pt]1([NH2])[O]CC(=O)[O]1 [nedaplatin] |  |  |  |  |  |  |  |  |  |  |  | IC50, growth inhibition of Siha cells by nedaplatin alone (Siha cells [1]; 48 hours, nedaplatin alone): 11.204 µg/mL; IC50, growth inhibition of HeLa cells by nedaplatin alone (HeLa cells [2]; 48 hours, nedaplatin alone, listed as NDP): 2.878 µg/mL
2 | Clc1ccc(C2NCC(c3ccccc3)C3(CCCCC3)O2)cc1 (stereo not drawn) [No. 11] | 127.7 to 128.5 | 1.22 ± 0.0789 | 2.65 ± 0.0739 | 5.26 ± 0.294 | 13.6 ± 1.22 | 41.8 ± 1.19 | 71.4 ± 1.15 | 97.18 ± 0.525 | 98.02 ± 0.465 | 70.2 |  | 
3 | COc1ccc(C2CNC(c3c(F)cccc3F)OC23CCCCC3)cc1 (stereo not drawn) | 131.7 to 132.6 |  |  |  |  |  |  |  |  |  |  | 
4 | COc1ccc(C2CNC(c3ccc(F)cc3F)OC23CCCCC3)cc1 (stereo not drawn) [No. 22] | 128.7 to 129.6 | -3.13 ± 0.705 | -0.339 ± 0.0726 | 4.27 ± 0.729 | 22.1 ± 0.976 | 36.13 ± 0.285 | 66 ± 0.898 | 93.9 ± 1.67 | 95.18 ± 0.39 | 75.2 |  | 
5 | COc1ccc(C2CNC(c3ccccc3F)OC23CCCCC3)cc1 (stereo not drawn) [No. 16] | 171.3 to 172.5 |  |  |  |  |  |  |  |  |  |  | Effect on cell migration (scratch width) (HaCaT cells): minimal; Effect on c-Myc expression (c-Myc): decreased; Effect on p53 expression (p53): increased; IC50 (Siha cells [1]; Homo sapiens, SiHa, read-out: IC50, growth inhibition of Siha cells): 78.8 µM; IC50 [3]: 1710 µM; Effect on h-TERT expression (h-TERT): decreased; IC50 (HeLa cells [2]; 48 h, read-out: IC50, growth inhibition of HeLa cells, 48 hours, MTT): 48.2 µM; inhibition at 1 µM (HeLa cells [2]): 7.41 ± 0.976%; inhibition at 5 µM (HeLa cells [2]): 11 ± 0.467%; inhibition at 15 µM (HeLa cells [2]): 20.2 ± 0.779%; inhibition at 30 µM (HeLa cells [2]): 36.5 ± 0.471%; inhibition at 60 µM (HeLa cells [2]): 59.3 ± 1.1%; inhibition at 120 µM (HeLa cells [2]): 87.6 ± 0.891%; inhibition at 180 µM (HeLa cells [2]): 92.89 ± 0.537%; inhibition at 240 µM (HeLa cells [2]): 92.98 ± 0.237%; Effect on cell migration (scratch width) (HeLa cells [4]): inhibited the migration; Effect on cell migration (scratch width) (Siha cells [5]): inhibited the migration; Effect on HPA levels (HPA): reduced HPA levels
6 | Fc1ccc(C2NCC(c3ccccc3)C3(CCCCC3)O2)cc1 (stereo not drawn) [No. 12] |  | -5.15 ± 0.0626 | -1.54 ± 0.472 | 5.39 ± 0.33 | 8.76 ± 1.21 | 31.7 ± 1.21 | 55.5 ± 0.671 | 89.01 ± 0.491 | 90.89 ± 0.416 | 96.6 |  | 
7 | Fc1cccc(F)c1C1NCC(c2ccccc2)C2(CCCCC2)O1 (stereo not drawn) [No. 14] | 130.4 to 131.2 | 2.92 ± 0.155 | 4.05 ± 0.888 | 9.57 ± 0.761 | 17.9 ± 1.2 | 46.4 ± 1.22 | 78.58 ± 0.502 | 96.98 ± 0.86 | 98.96 ± 0.517 | 64.2 | 4.47 | 
8 | COc1ccc(C2CNC(c3ccc([N+](=O)[O-])cc3)OC23CCCCC3)cc1 (stereo not drawn) [No. 15] | 111.3 to 112.5 | 9.12 ± 0.166 | 17 ± 0.732 | 25.2 ± 0.947 | 33.2 ± 2.34 | 36.2 ± 0.592 | 77.5 ± 3.82 | 92.4 ± 3.08 | 95.2 ± 3.11 | 80 | 28.8 | 
9 | COc1ccc(C2CNC(c3ccc(C)cc3)OC23CCCCC3)cc1 (stereo not drawn) [No. 20] | 105.4 to 106.7 | 5.01 ± 0.247 | 5.02 ± 0.0834 | 13.3 ± 0.32 | 19.4 ± 1.34 | 38.49 ± 0.255 | 66.3 ± 1.14 | 90.5 ± 1.12 | 95.44 ± 0.525 | 77.6 | 14.1 | 
